According to patent US20080248008A1, “Inhibitors of Protein Kinase a Anchoring” (priority 2004, published 2008):

Legend:
[1] = tested on: Csk-PS364; experiment: Csk phosphoserine 364 level in forskolin-stimulated T cells; type: cell-based, human; details: 25 μM, 12 hours
Experimental: Antibodies. RI or RII were immunoprecipitated with polyclonal antibodies against human RI or human RII at a 3 μg/ml dilution (Santa Cruz Biotechnology). MEME3 or scrambled peptide was immunoprecipitated with 1.5 μl of anti-GFP antiserum (Invitrogen). Monoclonal (Transduction laboratories) or polyclonal antibodies (Santa Cruz Biotechnology) against human RIα and RIIα were used at a 1 μg ml^−1 or 0.5 μg ml^−1 ilution for Western blotting. Polyclonal antibodies against human Cα (Santa Cruz Biotechnology) and LAT (Upstate Biotechnology) were used at a 0.4 μg ml^−1 and a 1 μg ml^−1 dilution for Western blotting, respectively. Polyclonal antibodies against LckPY505 (Cell Signaling) were used at a 1:1000 dilution and polyclonal antibody raised towards PS364 in Csk were used as previously described (Yaqub et al., Biochem. J., 372: p 271-8, 2003). Polyclonal antibodies against StAR (Affinity BioReagents) were used at 1 μg ml^−1. […]
Peripheral blood T cells were treated with 25 μM M3-Arg11 or mock treated for 12 hours and stimulated with forskolin to activate the PKA-Csk inhibitory pathway. Subsequently, cell lysates were subjected to […], blotting onto a PVDF membranes and the Csk phosphoserine 364 levels were assessed by immunoblotting using phosphospecific antibodies to Csk-PS364 (FIG. 19, upper panel).

[2] = target: T1, RI(Δ1-24) (Bos taurus, UniProt P00514); experiment: Co-precipitation with recombinant RI(Δ1-24) added to HEK293 lysate; type: binding; details: recombinant protein added to cell lysate
T1 construct: made in house; host or cells: E. coli BL21 (B121 [sic])
Description: Constructs and mutagenesis. Oligonucleotides with the following sequences were directionally cloned into EGFP-C (Clonetech) vector via TOPO blunt vector (Invitrogen) by using SalI and BamHI sites. MEME3(+), 5′-GTC GAC-CTGGAGCAGTACGCCAACCAGCTGGCCGACCAGATCATCAAGGAGGCCACCGAG-GGA TCC-3′; MEME3 (−), 5′-GGA TCC-CTCGGTGGCCTCCTTGATGATCTGGTCGGCCAGCTGGTTGGCGTACTGCTCCAG-GTC GAC-3′; Scramble (+), 5′-GTCGACATCGAGAAGGAGCTGGCCCAGCAGTACCAGAACGCCGACGCCATCACCCTGGAGGGATCC-3′; and Scramble (−), 5′-GGATCCCTCCAGGGTGATGGCGTCGGCGTTCTGGTACTGCTGGGCCAGCTCCTTCTCGATGTCGAC-3′. The site specific mutation, A98S, was made in RI wild type cloned into pRSETB (Invitrogen) using a site specific-mutagenesis kit (Stratagene). RI( 1-11), RI(Δ1-15) and RI(Δ1-24) mutants were made by PCR and re-cloned into pRSETB (Invitrogen). All constructs were confirmed by sequencing.
HEK293 cells at […] were transfected with ten μg of plasmid DNA (GFP, GFP-MEME3 or GFP-Scrambled MEME3) by using the CaCl2 method. […]
In FIG. 4D, the co-precipitation of recombinant full length and N-truncated RI (added to the cell lysate) with MEME3 was detected by immunoblotting using a monoclonal antibody against RI (lane 2-4).

[3] = target: T2, RIIα (Mus musculus, UniProt P12367); experiment: Fluorescence polarization, dissociation constant for RII; type: binding; details: qualitative
T2 construct: His tag; made in house; host or cells: E. coli BL21 (B121 [sic])
Experimental: Fluorescence Polarization. FITC-labeled peptides (SynPep, San Diego) that were used for fluorescence polarization studies included MEME3 (LEQYANQLADQIIKEATEK(5-Carboxyfluorescein)-CONH2) and MEME3 scrambled peptide (IEKELAQQYQNADAITLEK(5-Carboxyfluorescein)-CONH2). Peptides (0.5 nM for RI experiments and 1 nM for RII experiments) were suspended to working dilutions in phosphate-buffered saline containing 5 μg/μl BSA, pH 7.0. Increasing concentrations of recombinant bovine RI wt or recombinant murine RII were added to a PBS solution and mixed with each FITC-labeled peptide. Each sample was incubated for 2.5 hours. Fluorescence polarization was measured on a Beacon 2000 (Panvera, Madison, Wis.), following the manufacturer's instructions. Saturation binding curves were generated with PRISM graphing software (GraphPad, San Diego). Dissociation constants (Kd) were calculated from the nonlinear regression curve from averages of minimum three individual experiments.
Protein expression and purification. Human RI, Bovine RI and N-terminal deletions thereof or murine RII was expressed in E. coli B121 by IPTG induction. The RI containing pellet was incubated in lysis buffer (10 mM MOPS, pH 6.5, 100 mM NaCl, 10 μM DTT added protease inhibitors) and sonicated (Branson Sonifier 250) for 1 minute in three intervals at 0° C. […]

T1 sequence (P00514 25-380, stated change not applied): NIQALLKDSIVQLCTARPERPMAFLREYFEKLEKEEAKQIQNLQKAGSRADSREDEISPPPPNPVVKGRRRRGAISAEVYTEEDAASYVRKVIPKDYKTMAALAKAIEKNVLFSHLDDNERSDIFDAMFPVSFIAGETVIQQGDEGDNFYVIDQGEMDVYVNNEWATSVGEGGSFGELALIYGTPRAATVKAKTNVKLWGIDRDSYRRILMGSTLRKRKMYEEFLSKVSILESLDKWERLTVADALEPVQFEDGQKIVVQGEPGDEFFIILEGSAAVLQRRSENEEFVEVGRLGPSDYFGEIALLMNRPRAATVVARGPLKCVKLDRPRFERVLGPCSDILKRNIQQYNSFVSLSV
T2 sequence (P12367 whole entry): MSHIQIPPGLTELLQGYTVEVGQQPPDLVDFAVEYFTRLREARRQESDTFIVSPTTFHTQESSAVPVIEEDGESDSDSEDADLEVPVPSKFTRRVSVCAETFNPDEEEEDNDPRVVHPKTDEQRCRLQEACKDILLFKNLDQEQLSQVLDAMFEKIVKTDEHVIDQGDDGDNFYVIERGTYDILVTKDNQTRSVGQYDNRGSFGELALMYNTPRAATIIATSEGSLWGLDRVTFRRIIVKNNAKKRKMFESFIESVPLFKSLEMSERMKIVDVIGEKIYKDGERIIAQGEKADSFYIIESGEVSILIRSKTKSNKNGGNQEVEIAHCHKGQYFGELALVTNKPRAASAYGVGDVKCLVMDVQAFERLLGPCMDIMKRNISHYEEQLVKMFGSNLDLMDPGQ

## LEQYANQLADQIIKEATERRRRRRRRRrr [MEME3-Arg11]
[1]
  reduction of Csk-PS364 level: 70%

## CC[C@H](C)[C@H](NC(=O)[C@H](CCC(N)=O)NC(=O)[C@H](CC(=O)O)NC(=O)[C@H](C)NC(=O)[C@H](CC(C)C)NC(=O)[C@H](CCC(N)=O)NC(=O)[C@H](CC(N)=O)NC(=O)[C@H](C)NC(=O)[C@H](Cc1ccc(O)cc1)NC(=O)[C@H](CCC(N)=O)NC(=O)[C@H](CCC(=O)O)NC(=O)[C@@H](N)CC(C)C)C(=O)N[C@H](C(=O)N[C@@H](CCCCN)C(=O)N[C@@H](CCC(=O)O)C(=O)N[C@@H](C)C(=O)N[C@H](C(=O)N[C@@H](CCC(=O)O)C(=O)N[C@@H](CCCCNC(=O)c1ccc2c(c1)C(=O)OC21c2ccc(O)cc2Oc2cc(O)ccc21)C(N)=O)[C@@H](C)O)[C@@H](C)CC [MEME3]
[2]
  co-precipitation with RI(Δ1-24): did not precipitate MEME3

## IEKELAQQYQNADAITLE [SM3, scrambled MEME3 negative control peptide, reference compound]
[3]
  interaction with RII subunit: did not interact with either R subunit
